PubChem BioAssay (NCI)
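Cultured in 96-well plates, cells were exposed to test compound for 48 hours across five concentrations. GI50 is the concentration that inhibits growth by half. TGI: concentration producing complete growth inhibition.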

What was measured:
Assay in all cases: NCI tumour cell line growth inhibition, 48 h
NCI-H460 lung = system: NCI-H460 lung
HCT-116 colon = system: HCT-116 colon
A498 renal = system: A498 renal
SF-295 CNS = system: SF-295 CNS
A549 NSCLC = system: A549 NSCLC
NCI/ADR-RES ovarian = system: NCI/ADR-RES ovarian
MDA-MB-231 breast = system: MDA-MB-231 breast
786-0 renal = system: 786-0 renal
MDA-MB-435 = system: MDA-MB-435
DU-145 prostate = system: DU-145 prostate

| SMILES | TGI (NCI-H460 lung) | TGI (HCT-116 colon) | TGI (A498 renal) | TGI (SF-295 CNS) | TGI (A549 NSCLC) | TGI (NCI/ADR-RES ovarian) | TGI (MDA-MB-231 breast) | TGI (786-0 renal) | TGI (MDA-MB-435) | TGI (DU-145 prostate) | GI50 (MDA-MB-231 breast) | GI50 (HCT-116 colon) | GI50 (A498 renal) | GI50 (MDA-MB-435) | GI50 (SF-295 CNS) | GI50 (A549 NSCLC) | GI50 (NCI/ADR-RES ovarian) | GI50 (DU-145 prostate) | GI50 (NCI-H460 lung) |
| --- | --- | --- | --- | --- | --- | --- | --- | --- | --- | --- | --- | --- | --- | --- | --- | --- | --- | --- | --- |
| CCCCOc1ccc(OCCCCCCCCCC[N+](C)(C)C)cc1 | 12.7 µM | 9.31 µM | 28.6 µM | 19.9 µM | 15.2 µM | > 100 µM | – | – | – | – | – | – | – | – | – | – | – | – | – |
| CCC(O)(Cc1ccc(OC)cc1)c1ccc(OC)cc1 (stereo not drawn) | > 100 µM | > 100 µM | > 100 µM | > 100 µM | > 100 µM | > 100 µM | > 100 µM | > 100 µM | > 100 µM | > 100 µM | – | – | – | – | – | – | – | – | – |
| Cc1cc2c(O)c(c1)CN(CC(=O)O)Cc1cc(C)cc(c1O)CN(CC(=O)O)Cc1cc(C)cc(c1O)CN(CC(=O)O)C2 | > 100 µM | > 100 µM | > 100 µM | > 100 µM | > 100 µM | > 100 µM | > 100 µM | > 100 µM | > 100 µM | > 100 µM | – | – | – | – | – | – | – | – | – |
| COc1ccc(Nc2nc(N)c(C(=O)c3c[nH]c4ccccc34)s2)cc1 | 6.83 µM | 6.58 µM | 16.3 µM | > 100 µM | > 61.3 µM | 19.4 µM | > 100 µM | 13.6 µM | – | 10.2 µM | – | – | – | – | – | – | – | – | – |
| C/C(Cl)=N\OC(=O)Nc1ccc(C)cc1 | 33.4 µM | 38.6 µM | 32.9 µM | 30.5 µM | 35.6 µM | 42.1 µM | 37.5 µM | 32.7 µM | – | – | – | – | – | – | – | – | – | – | – |
| CN(C)CCNC(=O)c1cc(Cl)cc2ccc(-c3ccccc3)nc12 | 7.09 µM | 10.7 µM | 15.8 µM | 15.4 µM | 12.4 µM | 10.9 µM | – | – | – | – | – | – | – | – | – | – | – | – | – |
| Cc1ccc(C(=O)N/N=C(\N=Nc2ccccc2)c2ccc(N(C)C)cc2)cc1 | > 100 µM | > 100 µM | – | > 100 µM | > 100 µM | > 100 µM | > 100 µM | > 100 µM | > 100 µM | > 100 µM | – | – | – | – | – | – | – | – | – |
| COc1cc(-c2n/c(=C\c3c(O)[nH]c4ccc(Cl)cc34)cc3c2=Nc2ccccc2-3)ccc1F | – | 3.34 µM | 15.2 µM | 5.55 µM | 3.38 µM | 5.04 µM | 3.22 µM | – | 4.65 µM | 4.8 µM | 1.56 µM | 1.75 µM | 3.16 µM | 2.16 µM | 2.34 µM | 1.76 µM | 2.03 µM | 2.18 µM | – |
| N#C/C(=C/n1c(=S)[nH]c2ccc([N+](=O)[O-])cc21)C(N)=O | > 100 µM | > 100 µM | – | > 100 µM | > 100 µM | > 100 µM | > 100 µM | > 100 µM | > 100 µM | > 100 µM | – | – | – | – | – | – | – | – | – |
| CS(=O)(=O)CSCSSCS(C)(=O)=O | > 84.8 µM | > 100 µM | > 100 µM | 55.7 µM | > 100 µM | – | – | 41.3 µM | – | – | – | – | – | – | – | – | – | – | – |
| O=S(=O)(O)c1ccc(N=Nc2ccc(N=Nc3ccc(/C=C/c4ccc(N=[N+]([O-])c5ccc(/C=C/c6ccc(N=Nc7ccc(N=Nc8ccc(S(=O)(=O)O)cc8)cc7)cc6S(=O)(=O)O)c(S(=O)(=O)O)c5)cc4S(=O)(=O)O)c(S(=O)(=O)O)c3)cc2)cc1 | > 100 µM | > 100 µM | > 100 µM | > 100 µM | > 100 µM | > 100 µM | – | – | – | – | – | – | – | – | – | – | – | – | – |
| CCOC(=O)C1(C#N)C(c2ccccc2)CC(O)(c2ccc(Cl)cc2)C(C(=O)c2ccc(Cl)cc2)C1c1ccccc1 (stereo not drawn) | > 100 µM | > 100 µM | – | > 100 µM | > 100 µM | – | – | > 100 µM | – | – | – | – | – | – | – | – | – | – | – |
| CSc1cc(=O)n2c3ccccc3c3ccnc1c32 | > 100 µM | > 100 µM | > 100 µM | > 100 µM | > 100 µM | > 100 µM | – | – | – | – | – | – | – | – | – | – | – | – | – |
| COC(=O)C1=C(C(=O)OC)SC(=CC#CC=C2SC(C(=O)OC)=C(C(=O)OC)S2)S1 | > 100 µM | 32.3 µM | 34.7 µM | 11.8 µM | > 100 µM | – | – | 18.2 µM | – | – | – | – | – | – | – | – | – | – | – |
| COc1cc2cc(C(=O)N3C[C@H](CCl)c4c3cc(N)c3ccccc43)[nH]c2c(OC)c1OC | 0.0067 µM | 0.6 µM | 0.0318 µM | > 50 µM | > 50 µM | 7.69 µM | 0.0254 µM | – | 0.137 µM | < 0.005 µM | 0.005 µM | 0.005 µM | – | – | 0.005 µM | – | – | < 0.005 µM | 0.005 µM |
| COc1cc(C(c2c(O)c3ccccc3oc2=O)c2c(O)c3ccccc3oc2=O)cc(Br)c1O | – | 32.7 µM | 29.4 µM | 40.3 µM | 35.6 µM | 53.1 µM | 32.8 µM | 37.8 µM | 51.6 µM | 33.6 µM | – | – | – | – | – | – | – | – | – |
| CCP(=O)(OC)C1=CCN(C(=O)OCC[Si](C)(C)C)CC1 (stereo not drawn) | > 100 µM | – | > 100 µM | > 100 µM | > 100 µM | > 100 µM | > 100 µM | > 100 µM | > 100 µM | > 100 µM | – | – | – | – | – | – | – | – | – |
| O=C1C=CC=C/C1=C1\N=C(c2ccccc2OCC(=O)c2ccccc2)SS1 | > 100 µM | > 100 µM | > 100 µM | > 100 µM | > 100 µM | > 100 µM | > 100 µM | > 100 µM | > 100 µM | – | – | – | – | – | – | – | – | – | – |
| COc1ccccc1CN=C1Nc2ccncc2S(=O)(=O)N1c1ccccc1 | > 100 µM | > 100 µM | > 100 µM | > 100 µM | > 100 µM | > 100 µM | – | > 100 µM | > 100 µM | > 100 µM | – | – | – | – | – | – | – | – | – |
| Cc1cc(C)c2c(=O)cc(-c3cccc(F)c3)[nH]c2n1 | 2.45 µM | 0.433 µM | > 26.9 µM | 0.199 µM | > 100 µM | – | 4.17 µM | > 64.2 µM | – | > 45.3 µM | – | – | – | – | – | – | – | – | – |
| CCCCSc1nsc(N(C(=O)c2ccccc2)C(=O)c2ccccc2)n1 | 76.9 µM | 92.6 µM | 88.8 µM | > 100 µM | > 100 µM | > 100 µM | – | > 100 µM | > 100 µM | > 100 µM | – | – | – | – | – | – | – | – | – |
| O=C(OCCN=c1c2ccccc2ccc2ccccc12)c1ccccc1 | > 100 µM | > 100 µM | – | > 100 µM | > 100 µM | > 100 µM | > 100 µM | > 100 µM | > 100 µM | > 100 µM | – | – | – | – | – | – | – | – | – |
